Entries after “also recorded” stand apart in the source; their conditions may differ. Read-outs that look alike come from different tables or passages of the source.
Assays:
[1] = tested on: HCC1954 PTEN-siRNA cells; assay: Repertaxin on HCC1954 PTEN-siRNA cells (western, MTT); assay type: cell-based, human
Method: (§1) Cell viability. […] Nuclei were counterstained with DAPI/antifade (Invitrogen).
(§2) Western blotting. Cells were lysed in a laemmli buffer and loaded onto SDS-polyacrylamide gels. Blots were incubated with the respective primary antibodies diluted in TBST (containing 0.1% Tween20 and 2% BSA) either overnight at 4o, or 2 hours at room temperature. Blots were washed and incubated with appropriate secondary antibodies (GE Healthcare, UK) and detected using SuperSignal West Pico Chemiluminescent Substrate (Pierce).
Virus infection. […] All lentiviral constructs were prepared by the University of Michigan Vector. An adenoviral construct for the overexpression of FAK (Ad-FAK-GFP) was also utilized (Luo et al. Cancer Res. 69:466-474, herein incorporated by reference in its entirety). Cells infection with different vectors was performed as previously described (Charafe-Jauffret et al. Cancer Res. 69:1302-1313, herein incorporated by reference in its entirety). Efficiency of infection was verified by measuring the percentage of DsRed or GFP expressing cells.

[2] = tested on: HCC1954 cells; assay: MTT assay, cell viability of HCC1954 cells; assay type: cell-based, human; settings: repertaxin 100 nM, antibodies 10 μg/ml
Text: as §1

[3] = tested on: ALDEFLUOR-positive population of MDA-MB-453; assay: ALDEFLUOR assay on MDA-MB-453 cells in vitro; assay type: cell-based, human; settings: three days, repertaxin 100 nM, antibodies 10 μg/ml
Method: (§3) ALDEFLUOR assay. […] In order to eliminate cells of mouse origin from the xenotransplanted tumors, cell population was stained with an anti-H2Kd antibody (BD biosciences, 1/200, 20 min on ice) followed by staining with a secondary antibody labeled with phycoerythrin (PE) (Jackson labs, 1/250, 20 min on ice).

[4] = tested on: FOXO3A; assay: Immunohistochemistry of FOXO3A in xenotransplants; design: species or system NOD/SCID mice; settings: mouse, in vivo
Method: (§4) Immunostaining. For immunofluorescent staining, sorted CXCR1-positive cells were fixed with 95% methanol at −20° C. for 10 minutes. Cells were rehydrated in PBS and incubated with respective antibodies at room temperature for 1 hour. Primary antibodies used were P-FAK (1:50, Cell Signaling Technology), P-AKT (1:300, Cell Signaling Technology), and FOXO3a (1:250, Cell Signaling Technology). Slides were then washed and incubated 30 minutes with PE conjugated secondary antibodies (Jackson labs). The nuclei were counterstained with DAPI/antifade (Invitrogen) and coverslipped. […] Immunohistochemistry for the detection of ALDH1 (1:100, BD biosciences), P-FAK, P-AKT, FOXO3a expression was done on paraffin section (Ginestier et al. Am. J Pathol. 161:1223-1233, herein incorporated by reference in its entirety). Staining was done utilizing the Histostainplus kit (Zymed laboratories). Diaminobenzidine (DAB) or 3-amino-9-ethylcarbazole (AEC) was used as chromogen and sections were counterstained with hematoxylin.

[5] = tested on: FAK Tyr397 and AKT Ser473 phosphorylation; assay: Western blotting of FAK/AKT activation in HCC1954; assay type: cell-based, human; settings: 100 nM, two days
Method: as §2

[6] = tested on: FAK Tyr397 and AKT Ser473 phosphorylation; assay: Western blotting of FAK/AKT activation in SUM159; assay type: cell-based, human; settings: 100 nM, two days
Method: as §2

[7] = tested on: CD44+/CD24- cell population of MC1, UM2, UM3 xenografts; assay: CD44+/CD24- cells in treated tumors (flow cytometry); design: species or system NOD/SCID mice; settings: mouse, in vivo
Method: (§5) Animal model. […] Cells from these tumors were transplanted orthotopically in the humanized cleared fat-pad of NOD/SCID mice, without cultivation in vitro. […] 50,000 cells from each xenotransplants were injected in the humanized fat pad of NOD/SCID mice and monitored the tumor growth. […] The animals were euthanized when the tumors were approximately 1.5 cm in the largest diameter, to avoid tumor necrosis and in compliance with regulations for use of vertebrate animal in research. A portion of each fat pad injected was fixed in formalin and embedded in paraffin for histological analysis. The rest of the tumor cells were re-implantated into secondary NOD/SCID mice. Serial dilutions of cells were utilized for the re-implantation with injection of 10,000, 1,000, and 100 cells for each treated tumor.
Flow cytometry analysis. […] CD95/FAS staining were performed utilizing an anti-CD95 labeled APC (1:20, BD biosciences). […] Fresh cells were stained with 1 μg/ml PI (Sigma) for 5 min for viability.

[8] = phase I and phase II clinical trials, cited from earlier work
[9] = tested on: ALDEFLUOR-positive population of SUM159 cell line; assay: ALDEFLUOR assay on SUM159 cells in vitro (cancer stem cell population); assay type: cell-based, human
Method: ALDEFLUOR Assay and Separation of the ALDH-positive Population by FACS. ALDH activity was assessed in 33 BCLs representing the main molecular subtypes of human breast cancer. The ALDEFLUOR kit (StemCell technologies, Durham, N.C., USA) was used to isolate the population with high ALDH enzymatic activity (17). Cells obtained from subconfluent cell lines after trypsinization or from freshly dissociated xenografts were suspended in ALDEFLUOR assay buffer containing ALDH substrate (BAAA, 1 μmol/l per 1×10^6 cells) and incubated for 40 minutes at 37° C. In each experiment a sample of cells was stained under identical conditions with 50 mmol/L of diethylaminobenzaldehyde (DEAB), a specific ALDH inhibitor, as negative control. Flow cytometry sorting was conducted using a FACStarPLUS (Becton Dickinson). ALDEFLUOR fluorescence was excited at 488 nm and detected using standard fluorescein isothiocyanate (FITC) 530/30 band pass filter. For xenotransplanted tumors, incubation with an anti-H2Kd antibody (BD biosciences, 1/200, 20 min on ice) followed by a secondary antibody labeled with phycoerythrin (Jackson labs, 1/250, 20 min on ice) was used to eliminate cells of mouse origin. The sorting gates were established using PI stained cells for viability, ALDEFLUOR-stained cells treated with DEAB, and those stained with secondary antibody alone. Prior to RNA profiling or NOD/SCID mice injection, the purity of sorted populations was checked using double sorting of 10,000 ALDEFLUOR-positive and negative cells in BrCa-MZ-01 and SUM159 cell lines.
as §3

[10] = tested on: phospho-AKT; assay: Immunohistochemistry of phospho-AKT in xenotransplants; design: species or system NOD/SCID mice; settings: mouse, in vivo
Method: as §4

[11] = tested on: SUM159 cell line and human breast cancer xenografts MC1, UM2, UM3; assay: Tumor growth of breast cancer xenografts in the mammary fat pad; assay type: in vivo, NOD/SCID mice; settings: repertaxin 15 mg/Kg s.c. twice a day 28 days, docetaxel 10 mg/Kg i.p. once a week, start at tumor size about 4 mm
Method: For each sample, 50,000 cells were injected into the mammary fat pad of NOD-SCID mice which were monitored for tumor size. Injections were started when the tumor size was about 4 mm.
as §5

## CC(C)Cc1ccc([C@@H](C)C(=O)NS(C)(=O)=O)cc1 [Repertaxin]
[1]; 100 nM, two days
  FAK and AKT activity in HCC1954 PTEN-siRNA cells (western blot): PTEN deletion blocked the effect of repertaxin treatment
[1]; 3 days of treatment
  cell viability (MTT) of HCC1954 PTEN-siRNA cells: developed resistance to repertaxin
[2]
  cell viability (MTT): decrease in cell viability was observed after 3 days of treatment; also recorded: significant reduction
[3]
  ALDEFLUOR-positive population: np any effect
[4]
  nuclear FOXO3A in treated tumors: detected
[5]
  FAK Tyr397 and AKT Ser473 phosphorylation (western blot): decrease in FAK Tyr397 and AKT Ser473 phosphorylation
[5]; listed as repertaxin
  FAK Tyr397 and AKT Ser473 phosphorylation (western blot): decrease in FAK Tyr^397 and AKT Ser^473 phosphorylation
[6]
  FAK Tyr397 and AKT Ser473 phosphorylation (western blot): decrease in FAK Tyr397 and AKT Ser473 phosphorylation
[6]; listed as repertaxin
  FAK Tyr397 and AKT Ser473 phosphorylation (western blot): decrease in FAK Tyr^397 and AKT Ser^473 phosphorylation
[7]
  percent of CD44+/CD24- cells in residual tumors: reduction
[8]
  toxicity in clinical studies: lack of toxicity
[8]; listed as Repartaxin
  toxicity in clinical studies: little toxicity
[9]; SUM159, repertaxin, repertaxin plus anti-FAS-ligand, FAS agonist
  percent of ALDEFLUOR-positive cells: massive decrease
[9]; SUM159, three days, repertaxin 100 nM, antibodies 10 μg/ml
  proportion of ALDEFLUOR-positive cells: five-fold reduction; also recorded: significant reduction
[9]; SUM159 adherent, 4 days of treatment
  decrease of the ALDEFLUOR-positive population: 80%
[10]
  cells expressing phospho-AKT in treated tumors: complete inhibition; also recorded: no expression was detected
[11]
  tumor size / tumor growth compared to the control: moderate impact on tumor growth
[11]; listed as Reperataxin
  tumor size / tumor growth compared to the control: no significant difference
[11]; listed as repertaxin
  tumor size / tumor growth compared to the control: no difference
